pIC50: −log10 of the molar value. Bounds are passed on as bounds.

Results on one molecule are retold here after patent US10188630B2, “Methods for identifying and using inhibitors of casein kinase 1 epsilon isoform for inhibiting the growth and/or proliferation of MYC-driven tumor cells” (Fred Hutchinson Cancer Research Center, priority 2010, dated 2019).

Data set [1] has as its system TOV112D cells (amplified c-MYC expression). Put plainly: Cell cycle analysis (Propidium Iodide staining, FACS). Format: cell-based, human. Conditions: 1 μM IC261; 16 and 24 hours. Here is the method:
(§1) Ovarian cancer cell lines with normal (i.e., low) and amplified expression of c-MYC were assessed for the impact of the CSNK1ε inhibitor IC261 on the progression of the cell cycle. CaOV3 cells (normal c-MYC expression) and TOV112D cells (amplified c-MYC expression) were cultured in 1 μM IC261. The cells were assessed for the state of the cell cycle, namely G1, S-phase, and G2, at time points before and 16 and 24 hours after contact with IC261 by Propidium Iodide staining followed by FACS analysis. […] However, the levels were lower for the cells with amplified c-MYC expression. […] This trend was not observed for the cancer cells with normal c-MYC expression.

Data set [2] has as its system CaOV3 cells (normal c-MYC expression). Described as above. Format: cell-based, human. The note with it: 1 μM IC261; 16 and 24 hours. Here is the method:
as §1

In data set [3] the test system is PEO4 (cisplatin-resistant derivative) ovarian cancer cells. Description: Cell viability with cisplatin in presence or absence of IC261. The note with it: 1 μM IC-261 with low doses of cisplatin. It counts as cell-based, human. The text has this: Cisplatin, or cis-diamminedichloroplatinum(II) (CDDP), is a chemotherapy drug commonly used to treat numerous types of cancers including ovarian cancer. Cisplatin contains platinum complexes that crosslink DNA, ultimately triggering apoptosis of the cell. However, many treated cancer relapse and display a resistance to cisplatin. Considering the ability of CSNK1ε inhibitors to reduce viability of cells with amplified c-MYC expression, a similar role of CSNK1ε inhibitors on cisplatin resistant cancer cells was investigated. A2780 and A2780-CP70 (resistant derivative), PEO1 and PEO4 (resistant derivative of PE01) ovarian cancer cell lines were cultured in the presence of increasing doses of cisplatin and the presence or absence of IC261. Cell viability was monitored as described above. […] It is noted that the c-MYC expression level in A2780 cells is yet undetermined.

The subject of data set [4] is HFF with cMYC induced, TOV112D, COLO720E (amplified c-MYC expressing). Description: Cell viability with increasing IC261, cells with amplified c-MYC. It counts as cell-based, human. The note with it: IC261 at 0.5 log μM and above. The procedure: (§2) The effect of CSNK1ε on the cell viability of ovarian cancer lines was investigated in vitro. First, HFF (non-cancer primary cells) with control vector, RMG-1 (normal c-MYC expressing), CaOV3 (normal c-MYC expressing), HFF with cMYC induced (amplified c-MYC expressing), TOV112D (amplified c-MYC expressing), and COLO720E (amplified c-MYC expressing) were exposed to increasing concentrations of IC261. Cell viability was assessed as described above.

Data set [5] has as its system WNT signaling (β-catenin activity) in COLO720E ovarian cells. Description: Relative β-catenin activity (WNT signaling) in COLO720E ovarian cells. It counts as cell-based, human. The note with it: higher doses of IC261 (0, 0.67, 3.3, 6.67 μM tested). The procedure:
CSNK1ε has been implicated as a positive regulator of WNT signaling (Sakanaka, C., “Phosphorylation and Regulation of Beta-Catenin by Casein Kinase I Epsilon,” J Biochem 132:697-703, 2002). To determine the functional status of WNT activity in neuroblastoma cells with or without amplified MYCN expression, a WNT dual reporter system, employing both consensus (TOP) and mutant (FOP) TCF binding sites was assayed in neuroblastoma cell lines SK-N-AS (MYCN not amplified), SH-Sy5Y (MYCN not amplified), IMR-32 (MYCN amplified and overexpressed), and SK-N-BE2 (MYCN amplified and overexpressed), as described in (Biechele, T. L., et al., “Transcription-Based Reporters of Wnt/beta-Catenin Signaling,” Cold Spring Harb Protoc 2009, pdb prot5223).
The impact of stable knock-down of CSNK1ε was assessed for the expression for WNT signal function. To confirm the efficacy of the stable knockdown technique in ovarian cells, Dox-inducible lentivirus constructs encoding shRNAs targeting CSNK1ε were transduced into COLO720E ovarian cells. […] Next, to assess the WNT signaling activity, relative β-catenin activity was assayed as described, supra, for COLO720E ovarian cells transduced with the shRNA encoding lentivirus targeting CSNK1ε. […] A similar effect on relative β-catenin activity was observed upon administration of IC261, the inhibitor of CSNK1ε. […]

Data set [6] relates to DOV13. Put plainly: IC261 loss of cell viability, ovarian cancer cell panel. It counts as cell-based. The note with it: Homo sapiens. Here is the method:
as §2
(§3) Similar assays were performed with an additional panel of ovarian cancer cells, including IGROV-1, PE01, DOV13, OAW42, TOV21G, and SKOV3. The log of the half maximal effective concentration (log IC50) was calculated to reflect half the concentration of IC261 required to results in complete loss of cell viability.

Data set [7] concerns IGROV-1. Described as above. It counts as cell-based. The note with it: Homo sapiens. Here is the method:
as §2, §3

The test system of data set [8] is OAW42. The description is as above. It counts as cell-based. The note with it: Homo sapiens, OAW-42. Here is the method:
as §2, §3

The subject of data set [9] is PE01. The description is as above. Format: cell-based. Conditions: Homo sapiens. Here is the method:
as §2, §3

Data set [10] deals with TOV21G. Described as above. It counts as cell-based. The note with it: Homo sapiens. Here is the method: as §2, §3
Data set [11] concerns SKOV3. The description is as above. It counts as cell-based. The note with it: Homo sapiens, SK-OV-3. Here is the method: as §2, §3

What is called pIC50 is −log10 of the IC50, conventionally taken in molar units. Read a high pIC50 as a low IC50. Consider `COc1cc(OC)c(/C=C2/C(=O)Nc3ccccc32)c(OC)c1` [IC261], for which the “cells in the G2 phase” value in [1] is “arrested at the G2 checkpoint”; in [2], “small and transient ability to cause cell cycle arrest in G2”. For the same molecule, the “percentage of cells in the G1 phase” value in data set [1] and in data set [2] was “drastically reduced” in each case. Further, the “cell viability with low doses of cisplatin” value in data set [3] is recorded as “large reduction in cell viability”. This molecule also returned a relative viability in data set [4] of at most 25%. For the same molecule, in [5], the “relative β-catenin activity” value is “reduced by more than two thirds”. Moreover, the pIC50 in [6] was 5.15; in data set [7] it was 3.23; in data set [8], 5.18; in [9] it was 5.06; in data set [10] it was 5.18; in data set [11], 5.33.
